According to patent US11090275B2, “Compositions comprising cannabidiol and second therapeutic agents for the treatment of cancer” (JAY PHARMA, INC., priority 2015, dated 2021):
Like-named read-outs stand apart in the source and are kept apart here.

Columns and labels:
HL-60 tumor = experiment: Mouse xenograft model transplanted with HL-60 cells; assay type: in vivo; conditions: 5 mg/kg CBD, 10 mg/kg CL, alone and combination, peritumoral; days 7 through 14
Description: NOD/SCID mice were bred and housed at animal facility of Ben-Gurion University of the Negev, Israel. All animals were used between 7-8 weeks old of age. For induction of tumor, mice were irradiated with 2.7 Gy X ray radiation for 2 min. The following 5 hours, mice were injected with 1 million viable HL-60 cells on right flank of mice. Mice were monitored for tumorigenesis. Tumors were measured during 14 days and their volumes (mm^3) were calculated as (d^2XD)/2 (where d is the shortest and D is the longest diameter of the tumor in mm). […] The injection was repeated once a day, 5 days per week, and tumor volumes were checked twice a week until the vehicle died and the remained animals were sacrificed.

CCRF-CEM cells [1] = experiment: Morphological quantification of apoptosis (acridine orange/ethidium bromide), CCRF-CEM; assay type: cell-based, human; conditions: serum free and 5% FCS medium, 24h
Description: (§1) for determination of apoptosis, cells were harvested (650 g, 7 min) and stained with acridine orange/ethidium bromide at a final concentration of 0.05 mg/ml. This method allows distinguishing between live, necrotic and apoptotic cells (FIG. 11). […] At least 100 cells were counted under a fluorescence microscope and the percentage of affected cells was calculated.

Mcl-1 = experiment: Western blot of Mcl-1 in CCRF-CEM cells; assay type: cell-based, human; conditions: 20 μM cannabidiol, by 3h of treatment
Description: Cells washed twice with ice cold PBS and lysed in RIPA buffer (50 mM Tris-HCl, 0.1% NP-40, 1 mM DTT, 0.25M sucrose, 2 mM MgCl2, pH 7.4) for 30 min on ice. After centrifugation, the post-nuclear supernatant containing the cell soluble fraction were loaded on to a 12% SDS-PAGE gel. After electrophoresis, the gels were blotted onto a PVDF membrane (Bio-Rad, Hercules, Calif.), blocked with 5% (w/v) milk for overnight at 4° C. temperature, washed briefly in Tris-Buffered Saline Tween-20 (TBST), and then probed overnight at 4° C. with the anti-mouse human anti-MC1-1 and calreticulin (CRN) primary antibodies. Primary antibody binding was detected with anti-mouse IgG conjugated to horseradish peroxidase (Jackson Immunoresearch, Avondale, Pa.), and made visible by enhanced chemiluminescence (ECL) (Biological Industries, Israel), according to manufacturer's instructions. Antibodies against MCl-1 and calreticulin (CRN) were purchased from Santa Cruz, Calif., USA.

CCRF-CEM cells [2] = experiment: XTT cell viability, CCRF-CEM cells; assay type: cell-based, human; conditions: cannabidiol at 5 μM or more, 24h
Description: (§2) human HL-60, myeloblastic leukemia and CCRF-CEM, acute lymphoblastic leukemia cell line were cultured in RPMI-1640 supplemented with 10% (v/v) heat-inactivated fetal calf serum, 2 mM L-glutamine, 100U/ml penicillin and 100 μg/ml streptomycin. MCF-7, breast cancer and A-172, glioblastoma cell lines were cultured in DMEM supplemented with 10% (v/v) heat-inactivated fetal calf serum, 2 mM L-glutamine, 100U/ml penicillin and 100 μg/ml streptomycin. Cultures were maintained at 37° C. in a humidified atmosphere with 5% CO2 and maintained in exponential phase by transfer to fresh medium every 2-3 days. Experiments were conducted in serum free medium and 5% or 10% FCS medium. The trypanblue dye exclusion method was used for cell counting performed using a hemocytometer under light microscope.

A-172 cells = experiment: XTT cell viability, A-172 cells; assay type: cell-based, human; conditions: cannabidiol at 5 μM or more, 48h
Description: as §2

HL-60 cells [3] = experiment: Morphological quantification of apoptosis (acridine orange/ethidium bromide), HL-60; assay type: cell-based, human; conditions: 5% FCS medium, 24 and 48h
Description: as §1

MCF-7 cells = experiment: XTT cell viability, MCF-7 cells; assay type: cell-based; conditions: cannabidiol at 5 μM or more, 24h
Description: as §2

HL-60 cells [4] = experiment: XTT cell viability, HL-60 cells; assay type: cell-based, human; conditions: for IC50: Homo sapiens
Description: as §2

Row | Compound | HL-60 tumor growth (HL-60 tumor) | induction of apoptosis (CCRF-CEM cells [1]) | Mcl-1 expression (Mcl-1) | number of viable cells (CCRF-CEM cells [2]) | number of viable cells (A-172 cells) | induction of apoptosis (HL-60 cells [3]) | number of viable cells (MCF-7 cells) | effect on cell viability at very low concentration (HL-60 cells [4]; 0.2 μM, serum free condition, 24h) | sensitivity of cells to CBD (HL-60 cells [4]; 10% FCS medium, 24h) | IC50 (HL-60 cells [4]; HL-60, 24 h, read-out: IC50, cell viability) | IC50 (HL-60 cells [4]; HL-60, 48 h, read-out: IC50 value, cell viability) | number of viable cells (HL-60 cells [4]; cannabidiol at 5 μM or more, 24h and 48 h)
1 | C=C(C)[C@@H]1CCC(C)=C[C@H]1c1c(O)cc(CCCCC)cc1O [CBD, Cannabidiol] | significant suppression | dose and time dependent induction of apoptosis | down regulated | significant reduction in the number of viable cells | significant reduction in the number of viable cells | dose and time dependent induction of apoptosis | significant reduction in the number of viable cells | profound effect on reduction of cell viability | less sensitive | 0.26 µM | 16 µM | significant reduction in the number of viable cells
2 | CCN(CC)CCOc1ccc(C(=C(Cl)c2ccccc2)c2ccccc2)cc1 [clomiphene] | significant suppression | – | – | – | – | – | – | – | – | – | – | –
